Experimental findings from ChEMBL document CHEMBL1149959, “Synthesis of potent -D-glucocerebrosidase inhibitors: N-alkyl--valienamines” (Bioorg Med Chem Lett, 1996) are described below.

The target of one assay is T1, Lysosomal acid glucosylceramidase (Mus musculus, UniProt P17439).
T1 sequence (P17439 whole entry): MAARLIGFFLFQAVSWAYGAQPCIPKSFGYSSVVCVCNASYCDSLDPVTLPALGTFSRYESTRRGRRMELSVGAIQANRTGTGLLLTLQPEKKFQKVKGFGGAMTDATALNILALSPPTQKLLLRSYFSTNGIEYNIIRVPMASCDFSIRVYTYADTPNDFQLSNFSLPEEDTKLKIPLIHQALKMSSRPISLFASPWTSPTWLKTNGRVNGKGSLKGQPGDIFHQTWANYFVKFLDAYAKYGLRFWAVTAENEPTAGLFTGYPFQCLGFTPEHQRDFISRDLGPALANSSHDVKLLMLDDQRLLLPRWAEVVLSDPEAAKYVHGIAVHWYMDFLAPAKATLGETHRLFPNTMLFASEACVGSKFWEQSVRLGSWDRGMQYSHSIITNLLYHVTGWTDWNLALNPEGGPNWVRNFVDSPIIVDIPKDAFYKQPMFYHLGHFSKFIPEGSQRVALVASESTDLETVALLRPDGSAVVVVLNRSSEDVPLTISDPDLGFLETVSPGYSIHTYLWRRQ
Briefly: Compound was tested for inhibitory activity against beta-glucocerebrosidase.
`CCCCCCN[C@@H]1C=C(CO)[C@H](O)C(O)[C@@H]1O` (some centres undefined) had an IC50 of 300 nM.
Same read-out and setting: with `CCCCCCCCCCCCCCN[C@@H]1C=C(CO)[C@H](O)C(O)[C@@H]1O` (some centres undefined) the figure was 120 nM; with `OC1C2O[C@H]2[C@@H](O)C(O)[C@@H]1O` (some centres undefined), 1100 nM.
On the same count and under the same terms, to `CCCCCCCCCCN[C@@H]1C=C(CO)[C@H](O)C(O)[C@@H]1O` (some centres undefined) belongs 70 nM; to `CCCCCCCCCCCCC/C=C/[C@@H](O)[C@H](CN[C@@H]1C=C(CO)[C@H](O)C(O)[C@@H]1O)NC(=O)CCCCCCCCCCCCCCC` (some centres undefined), 300 nM.
On the same count and under the same terms, to `CCCCCCCCCCCCCCCCCCN[C@@H]1C=C(CO)[C@H](O)C(O)[C@@H]1O` (some centres undefined) belongs 300 nM; to `CCCCCCCCN[C@@H]1C=C(CO)[C@H](O)C(O)[C@@H]1O` (some centres undefined), 30 nM; to `CCCCN[C@@H]1C=C(CO)[C@H](O)C(O)[C@@H]1O` (some centres undefined), 11000 nM.

For a further assay, the target named is T1, Lysosomal acid glucosylceramidase.
Regarding `N[C@H]1C=C(CO)C(O)[C@H](O)C1O` (single isomer, unassigned) [VALIENAMINE], the IC50 entry is “Not Active”.

One may read the IC50 as the concentration at which inhibition is half-maximal.
